Measurements reported in patent US20220235030A1, “SELECTIVE HISTAMINE H3 ANTAGONIST ACID ADDITION SALTS AND PROCESS FOR THE PREPARATION THEREOF” (RICHTER GEDEON NYRT., priority 2019, published 2022).
Entries after “also recorded” stand apart in the source; their conditions may differ. Counter-ions that a name gives are not always drawn.

Columns and labels:
Assay type in all cases: physicochemical
[1] = Dynamic vapor sorption (DVS) analysis at 25° C., hygroscopicity and deliquescence; set-up: Δm/ΔRH: unit not given beside the values; conditions: for Δm/ΔRH: 25° C.
Method: Determination of the critical relative humidity is feasible by gravimetric method, e.g. with DVS, where relative humidity is changed in suitably selected steps and a sufficiently long time is used to the onset of quasi-equilibrium.
The deliquescence tendency of each salt is characterized by the critical relative humidity (CRH) value (Table 1), which was determined based on the sorption curves measured according to the measurement parameter settings below, with DVS analysis at 25° C. isotherm conditions, according to the following. […]
If the given sorption step is Δm/ΔRH≥0.5, then RH1 is considered to be the critical relative humidity (CRH) value indicating the end point of the physical stability of the substance. The value thus determined is a good match with the onset of a significant monotonic weight gain observed visually on the sorption curve. Above the critical relative humidity value, it is the process of deliquescence of the substance that determines the weight gain observed on the sorption curve.

[2] = Solubility in simulated gastric fluid; conditions: simulated gastric fluid (SGF without pepsin, pH=1.3); dihydrochloride salt
Text: The generally observed hygroscopic nature of the 1-[4-(4-{3-[(2R)-2-methyl-pyrrolidin-1-yl]-propoxy}-phenoxy)-piperidin-1-yl]-ethanone salts is inter alia related to the good solubility thereof.

[3] = Thermogravimetric (TG) analysis of thermal stability
Text: The compound of 1-[4-(4-{3-[(2R)-2-methyl-pyrrolidin-1-yl]-propoxy}-phenoxy)-piperidin-1-yl]-ethanone contains a single strongly basic center (pyrrolidine nitrogen), which is capable of forming stoichiometric salt with equimolar hydrochloride, thus the formation of dihydrochloride stoichiometry is not expected in view of the acid/base character of the compound. Based on TG and DSC analysis, the second molar amount of hydrochloride is less strongly bound to the crystal lattice, behaving as a volatile component. […] (FIG. 8). Parallelly to this process, according to the DSC and microscopic analysis, the sample starting from approx. 100° C. melts during decomposition (FIG. 9).

[4] = 10-day solid stress stability study, HPLC purity test; conditions: dihydrochloride salt
Text: Increased stability to ambient humidity is beneficial for longer-term physical and chemical stability of the active ingredient. The relationship between the reduced hygroscopic nature and the increased chemical stability associated with it is shown in the most preferred citrate salts in comparison to the dihydrochloride salt.

Critical Relative Humidity (CRH) ([1]; DVS at 25° C., RH1 of first sorption step with Δm/ΔRH≥0.5, dihydrochloride salt): 60% | Δm/ΔRH ([1]; RH1 0%, sorption, dihydrochloride salt): 0.0 | Δm/ΔRH ([1]; RH1 10%, sorption, dihydrochloride salt): 0.0 | Δm/ΔRH ([1]; RH1 20%, sorption, dihydrochloride salt): 0.0 | Δm/ΔRH ([1]; RH1 30%, sorption, dihydrochloride salt): 0.0 | Δm/ΔRH ([1]; RH1 40%, sorption, dihydrochloride salt): 0.0 | Δm/ΔRH ([1]; RH1 50%, sorption, dihydrochloride salt): 0.0 | Δm/ΔRH ([1]; RH1 60%, sorption, dihydrochloride salt): 1.7 | Δm/ΔRH ([1]; RH1 70%, sorption, dihydrochloride salt): 2.4 | Δm/ΔRH ([1]; RH1 80%, sorption, dihydrochloride salt): 2.1 | hygroscopicity (in words) ([1]; dihydrochloride salt): highly hygroscopic | relative weight gain ([1]; sorption curve, at 70% RH): 17% | relative weight change ([1]; sorption curve, at 90% RH): 63% | water bound relative to the dried mass ([1]; sorption curve, up to 60% RH): about 0.7% | relative humidity above which high, continuous weight gain (deliquescence) is observed ([1]; sorption, DVS at 25° C., dihydrochloride salt): above 60% | solubility [2]: greater than 59 mM | thermal stability (in words) [3]: thermally poorly stable | All contaminant (area %) ([4]; 10 days, 40° C., 75% RH, open glass): 59.56% area % | All contaminant (area %) ([4]; 10 days, 50° C., 75% RH, open glass): 51.32% area % | All contaminant (area %) ([4]; 10 days, 50° C., sealed glass): 0.98% area % | All contaminant (area %) ([4]; 10 days, 75° C., sealed glass): 1.50% area % | All contaminant (area %) ([4]; starting sample): 0.85% area %
Compound: CC(=O)N1CCC(Oc2ccc(OCCCN3CCC[C@H]3C)cc2)CC1 [diHCl, 1-[4-(4-{3-[(2R)-2-methyl-pyrrolidin-1-yl]-propoxy}-phenoxy)-piperidin-1-yl]-ethanone dihydrochloride salt]
chemical stability (in words) ([4]; 10-day solid stress: heat, heat and humidity): slightly degraded by heat; also recorded: degrades significantly under the combined effect of heat and humidity
